Measurements as given in patent US9707233B2, “Heterocyclylamines as PI3K inhibitors” (Incyte Corporation, priority 2011, dated 2017).

Target: PI3Kδ (p110δ/p85α) (Homo sapiens (Human), UniProt O00329)
Assay: PI3Kδ scintillation proximity assay (Example A3)
Type: biochemical
Settings: 20 μM ATP, 20 μM PIP2, 4 nM PI3Kδ; read-out: PI3Kδ SPA IC50
Protocol: [γ-^33P]ATP (10 mCi/mL) was purchased from Perkin-Elmer (Waltham, Mass.). […] PI3Kδ (p110δ/p85α) was purchased from Millipore (Bedford, Mass.). ATP, MgCl2, DTT, EDTA, MOPS and CHAPS were purchased from Sigma-Aldrich (St. Louis, Mo.). Wheat Germ Agglutinin (WGA) YSi SPA Scintillation Beads was purchased from GE healthcare life sciences (Piscataway, N.J.).
The kinase reaction was conducted in polystyrene 384-well matrix white plate from Thermo Fisher Scientific in a final volume of 25 μL. Inhibitors were first diluted serially in DMSO and added to the plate wells before the addition of other reaction components. The final concentration of DMSO in the assay was 0.5%. The PI3K assays were carried out at room temperature in 20 mM MOPS, pH 6.7, 10 mM MgCl2, 5 mM DTT and CHAPS 0.03%. Reactions were initiated by the addition of ATP, the final reaction mixture consisted of 20 μM PIP2, 20 μM ATP, 0.2 μCi [γ-^33P]ATP, 4 nM PI3Kδ. […] 25 mM EDTA, 400 μM ATP. The final concentration of SPA beads was 1.0 mg/mL. After the plate sealing, plates were shaken overnight at room temperature and centrifuged at 1800 rpm for 10 minutes, the radioactivity of the product was determined by scintillation counting on Topcount (Perkin-Elmer). IC50 determination was performed by fitting the curve of percent control activity versus the log of the inhibitor concentration using the GraphPad Prism 3.0 software.

Sequence of PI3Kδ (p110δ/p85α) (O00329 whole entry): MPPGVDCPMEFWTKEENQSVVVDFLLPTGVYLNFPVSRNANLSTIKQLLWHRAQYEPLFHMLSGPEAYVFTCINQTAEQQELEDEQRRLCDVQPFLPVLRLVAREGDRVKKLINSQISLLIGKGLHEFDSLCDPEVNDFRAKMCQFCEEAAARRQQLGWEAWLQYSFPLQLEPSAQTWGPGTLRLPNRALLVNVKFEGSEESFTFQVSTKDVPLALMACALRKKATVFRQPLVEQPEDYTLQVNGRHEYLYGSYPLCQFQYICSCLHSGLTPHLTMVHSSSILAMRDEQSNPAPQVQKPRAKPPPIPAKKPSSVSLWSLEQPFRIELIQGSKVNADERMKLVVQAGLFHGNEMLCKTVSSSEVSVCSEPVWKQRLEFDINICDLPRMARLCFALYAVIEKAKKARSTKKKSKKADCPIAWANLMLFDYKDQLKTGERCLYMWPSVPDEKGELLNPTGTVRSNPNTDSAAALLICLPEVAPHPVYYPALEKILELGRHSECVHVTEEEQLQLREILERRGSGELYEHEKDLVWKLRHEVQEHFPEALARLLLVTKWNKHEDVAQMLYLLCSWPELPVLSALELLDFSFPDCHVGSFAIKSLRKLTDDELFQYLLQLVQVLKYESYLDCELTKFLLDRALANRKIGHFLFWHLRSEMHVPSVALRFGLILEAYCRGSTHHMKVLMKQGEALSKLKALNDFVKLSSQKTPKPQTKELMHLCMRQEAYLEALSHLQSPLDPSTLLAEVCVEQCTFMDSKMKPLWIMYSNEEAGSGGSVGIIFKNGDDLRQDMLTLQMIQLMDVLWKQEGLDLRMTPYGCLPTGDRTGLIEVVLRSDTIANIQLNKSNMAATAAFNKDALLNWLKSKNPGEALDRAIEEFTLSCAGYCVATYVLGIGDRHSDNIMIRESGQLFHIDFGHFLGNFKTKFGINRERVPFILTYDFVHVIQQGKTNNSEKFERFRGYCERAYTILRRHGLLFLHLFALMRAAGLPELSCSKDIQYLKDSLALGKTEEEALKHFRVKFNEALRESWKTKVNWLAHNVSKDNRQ
Sequence of PI3Kδ (p110δ/p85α) (P27986 whole entry partner): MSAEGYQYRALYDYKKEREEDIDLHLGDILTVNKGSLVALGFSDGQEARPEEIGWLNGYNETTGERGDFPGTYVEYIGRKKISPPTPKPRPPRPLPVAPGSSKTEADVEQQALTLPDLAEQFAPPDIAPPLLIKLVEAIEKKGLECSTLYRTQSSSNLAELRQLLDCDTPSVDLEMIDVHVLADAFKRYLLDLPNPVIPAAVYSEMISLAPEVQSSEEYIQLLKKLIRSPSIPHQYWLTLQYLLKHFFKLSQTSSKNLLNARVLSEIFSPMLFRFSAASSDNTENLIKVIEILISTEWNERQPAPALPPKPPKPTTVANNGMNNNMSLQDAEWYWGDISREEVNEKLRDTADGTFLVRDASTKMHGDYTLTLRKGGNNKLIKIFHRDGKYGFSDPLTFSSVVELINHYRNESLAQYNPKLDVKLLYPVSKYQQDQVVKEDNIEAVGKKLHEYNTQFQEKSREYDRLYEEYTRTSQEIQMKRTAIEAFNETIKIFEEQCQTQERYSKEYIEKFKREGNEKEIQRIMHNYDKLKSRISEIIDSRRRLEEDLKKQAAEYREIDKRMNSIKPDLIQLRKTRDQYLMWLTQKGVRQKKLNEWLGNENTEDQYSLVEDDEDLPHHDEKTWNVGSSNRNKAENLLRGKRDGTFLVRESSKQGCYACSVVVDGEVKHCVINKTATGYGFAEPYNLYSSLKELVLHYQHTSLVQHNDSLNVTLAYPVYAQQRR

IC50 [nM]	Compound
≤ 10	CCOc1c(C(C)n2nc(-c3ccncc3)c3c(N)ncnc32)cc(Cl)c(C)c1-c1ccc(C(=O)N(C)C)nc1 (racemic) [Example 60, 5-{3-[1-(4-amino-3-pyridin-4-yl-1H-pyrazolo[3,4-d]pyrimidin-1-yl)ethyl]-5-chloro-2-ethoxy-6-methylphenyl}-N,N-dimethylpyridine-2-carboxamide tris(trifluoroacetate)]
≤ 10	CCOc1c(C(C)n2nc(-c3cccnc3)c3c(N)ncnc32)cc(Cl)c(C)c1-c1ccc(C(=O)N(C)C)nc1 (racemic) [Example 61, 5-{3-[1-(4-amino-3-pyridin-3-yl-1H-pyrazolo[3,4-d]pyrimidin-1-yl)ethyl]-5-chloro-2-ethoxy-6-methylphenyl}-N,N-dimethylpyridine-2-carboxamide tris(trifluoroacetate)]
≤ 10	CCOc1c(C(C)n2nc(-c3cncc(C(=O)N(C)C)c3)c3c(N)ncnc32)cc(Cl)c(C)c1-c1ccc(C(=O)N(C)C)nc1 (racemic) [Example 62, 5-{3-[1-(4-amino-3-{5-[(dimethylamino)carbonyl]pyridin-3-yl}-1H-pyrazolo[3,4-d]pyrimidin-1-yl)ethyl]-5-chloro-2-ethoxy-6-methylphenyl}-N,N-dimethylpyridine-2-carboxamide tris(trifluoroacetate)]
≤ 10	COc1c(C(C)n2nc(C)c3c(N)ncnc32)cc(Cl)c(F)c1C1CN(CC(C)(C)O)C1 (racemic) [Example 70, 1-(3-{3-[1-(4-Amino-3-methyl-1H-pyrazolo[3,4-d]pyrimidin-1-yl)ethyl]-5-chloro-6-fluoro-2-methoxyphenyl}azetidin-1-yl)-2-methylpropan-2-ol]
≤ 10	COc1c(C(C)n2nc(C(F)F)c3c(N)ncnc32)cc(C#N)c(F)c1C1CN(CCO)C1 (racemic) [Example 78, 5-{1-[4-Amino-3-(difluoromethyl)-1H-pyrazolo[3,4-d]pyrimidin-1-yl]ethyl}-2-fluoro-3-[1-(2-hydroxyethyl)azetidin-3-yl]-4-methoxybenzonitrile]
50 to 200	CCOc1c(C(C)n2nc(CC)c3c(N)ncnc32)cc(Cl)c(C)c1-c1ccc(C(=O)N(C)C)nc1 (racemic) [Example 81, 5-{3-[1-(4-Amino-3-ethyl-1H-pyrazolo[3,4-d]pyrimidin-1-yl)ethyl]-5-chloro-2-ethoxy-6-methylphenyl}-N,N-dimethylpyridine-2-carboxamide]
≤ 10	CCOc1c(C(C)n2nc(CO)c3c(N)ncnc32)cc(Cl)c(C)c1-c1ccc(C(=O)N(C)C)nc1 (racemic) [Example 83, 5-(3-{1-[4-Amino-3-(hydroxymethyl)-1H-pyrazolo[3,4-d]pyrimidin-1-yl]ethyl}-5-chloro-2-ethoxy-6-methylphenyl)-N,N-dimethylpyridine-2-carboxamide bis(trifluoroacetate)]
50 to 200	CCOc1c(C(C)n2nc(CNC)c3c(N)ncnc32)cc(Cl)c(C)c1-c1ccc(C(=O)N(C)C)nc1 (racemic) [Example 84, 5-[3-(1-{4-Amino-3-[(methylamino)methyl]-1H-pyrazolo[3,4-d]pyrimidin-1-yl}ethyl)-5-chloro-2-ethoxy-6-methylphenyl]-N,N-dimethylpyridine-2-carboxamide tris(trifluoroacetate)]
50 to 200	CCOc1c(C(C)n2nc(CN(C)C)c3c(N)ncnc32)cc(Cl)c(C)c1-c1ccc(C(=O)N(C)C)nc1 (racemic) [Example 85, 5-[3-(1-{4-Amino-3-[(dimethylamino)methyl]-1H-pyrazolo[3,4-d]pyrimidin-1-yl}ethyl)-5-chloro-2-ethoxy-6-methylphenyl]-N,N-dimethylpyridine-2-carboxamide tris(trifluoroacetate)]
≤ 10	CCOc1c(C(C)n2nc(CF)c3c(N)ncnc32)cc(Cl)c(C)c1-c1ccc(C(=O)N(C)C)nc1 (racemic) [Example 86, 5-(3-{1-[4-Amino-3-(fluoromethyl)-1H-pyrazolo[3,4-d]pyrimidin-1-yl]ethyl}-5-chloro-2-ethoxy-6-methylphenyl)-N,N-dimethylpyridine-2-carboxamide bis(trifluoroacetate)]
≤ 10	CCOc1c(C(C)n2nc(C)c3c(N)ncnc32)cc(Cl)c(C)c1C1CN(CCO)C1 (racemic) [Example 95, 2-(3-{3-[1-(4-Amino-3-methyl-1H-pyrazolo[3,4-d]pyrimidin-1-yl)ethyl]-5-chloro-2-ethoxy-6-methylphenyl}azetidin-1-yl)ethanol bis(trifluoroacetate)]
≤ 10	COc1c(C(C)n2nc(-c3cnn(C)c3)c3c(N)ncnc32)cc(Cl)c(C)c1C1CN(CC#N)C1 (racemic) [Example 125, [3-(3-{1-[4-Amino-3-(1-methyl-1H-pyrazol-4-yl)-1H-pyrazolo[3,4-d]pyrimidin-1-yl]ethyl}-5-chloro-2-methoxy-6-methylphenyl)azetidin-1-yl]acetonitrile bis(trifluoroacetate)]
≤ 10	CCOc1c(C(C)n2nc(C)c3c(N)ncnc32)cc(Cl)c(F)c1C1CN(C)C1 (racemic) [Example 145, 1-{1-[5-Chloro-2-ethoxy-4-fluoro-3-(1-methylazetidin-3-yl)phenyl]ethyl}-3-methyl-1H-pyrazolo[3,4-d]pyrimidin-4-amine]
≤ 10	CCOc1c(C(C)n2nc(C)c3c(N)ncnc32)cc(Cl)c(F)c1C1CN(CC)C1 (racemic) [Example 146, 1-{1-[5-Chloro-2-ethoxy-3-(1-ethylazetidin-3-yl)-4-fluorophenyl]ethyl}-3-methyl-1H-pyrazolo[3,4-d]pyrimidin-4-amine]
≤ 10	CCOc1c(C(C)n2nc(C(F)F)c3c(N)ncnc32)cc(Cl)c(F)c1C1CN(C(C)C)C1 (racemic) [Example 150, 1-{1-[5-Chloro-2-ethoxy-4-fluoro-3-(1-isopropylazetidin-3-yl)phenyl]ethyl}-3-(difluoromethyl)-1H-pyrazolo[3,4-d]pyrimidin-4-amine]
≤ 10	CCOc1c(C(C)n2nc(C(F)F)c3c(N)ncnc32)cc(Cl)c(F)c1C1CN(C)C1 (racemic) [Example 151, 1-{1-[5-Chloro-2-ethoxy-4-fluoro-3-(1-methylazetidin-3-yl)phenyl]ethyl}-3-(difluoromethyl)-1H-pyrazolo[3,4-d]pyrimidin-4-amine]
≤ 10	CCOc1c(C(C)n2nc(C(F)F)c3c(N)ncnc32)cc(Cl)c(F)c1C1CN(CCO)C1 (racemic) [Example 152, 2-[3-(3-{-1-[4-Amino-3-(difluoromethyl)-1H-pyrazolo[3,4-d]pyrimidin-1-yl]ethyl}-5-chloro-2-ethoxy-6-fluorophenyl)azetidin-1-yl]ethanol]
≤ 10	CCOc1c(C(C)n2nc(C(F)F)c3c(N)ncnc32)cc(Cl)c(F)c1C1CN(CC(C)(C)O)C1 (racemic) [Example 153, 1-[3-(3-{1-[4-Amino-3-(difluoromethyl)-1H-pyrazolo[3,4-d]pyrimidin-1-yl]ethyl}-5-chloro-2-ethoxy-6-fluorophenyl)azetidin-1-yl]-2-methylpropan-2-ol]
≤ 10	CCOc1c(C(C)n2nc(C)c3c(N)ncnc32)cc(Cl)c(C#N)c1-c1ccc(-c2nnn(C)n2)nc1 (racemic) [Example 336, 4-[1-(4-amino-3-methyl-1H-pyrazolo[3,4-d]pyrimidin-1-yl)ethyl]-6-chloro-3-ethoxy-2-[6-(2-methyl-2H-tetrazol-5-yl)pyridin-3-yl]benzonitrile]
≤ 10	CCOc1c(C(C)n2nc(C)c3c(N)ncnc32)cc(Cl)c(C#N)c1N1CC(COC)C1 (racemic) [Example 341, 4-[1-(4-amino-3-methyl-1H-pyrazolo[3,4-d]pyrimidin-1-yl)ethyl]-6-chloro-3-ethoxy-2-[3-(methoxymethyl)azetidin-1-yl]benzonitrile]
≤ 10	COc1c(C(C)n2nc(C)c3c(N)ncnc32)cc(Cl)c(C)c1-c1cnn(CCO)c1 (single isomer, unassigned) [20 (1st peak), 2-(4-(3-(1-(4-Amino-3-methyl-1H-pyrazolo[3,4-d]pyrimidin-1-yl)ethyl)-5-chloro-2-methoxy-6-methylphenyl)-1H-pyrazol-1-yl)ethanol]
50 to 200	COc1c(C(C)n2nc(C)c3c(N)ncnc32)cc(Cl)c(C)c1-c1cnn(CCO)c1 (single isomer, unassigned) [20 (2nd peak), 2-(4-(3-(1-(4-Amino-3-methyl-1H-pyrazolo[3,4-d]pyrimidin-1-yl)ethyl)-5-chloro-2-methoxy-6-methylphenyl)-1H-pyrazol-1-yl)ethanol]

Compound	IC50 [nM]
COc1c(C(C)n2ccc(=O)c3c(N)ncnc32)cc(Cl)c(C)c1-c1ccc(C(=O)N(C)C)nc1 (single isomer, unassigned) [25 (1st peak), 5-{3-[1-(4-Amino-5-oxopyrido[2,3-d]pyrimidin-8(5H)-yl)ethyl]-5-chloro-2-methoxy-6-methylphenyl}-N,N-dimethylpyridine-2-carboxamide]	200 to 500
COc1c(C(C)n2ccc(=O)c3c(N)ncnc32)cc(Cl)c(C)c1-c1ccc(C(=O)N(C)C)nc1 (single isomer, unassigned) [25 (2nd peak), 5-{3-[1-(4-Amino-5-oxopyrido[2,3-d]pyrimidin-8(5H)-yl)ethyl]-5-chloro-2-methoxy-6-methylphenyl}-N,N-dimethylpyridine-2-carboxamide]	≤ 10
